Measured values as given in patent publication US5681817A, “Treatment of ovarian estrogen dependent conditions” (The Medical College of Hampton Roads, priority 1994, dated 1997).
Entries after “also recorded” stand apart in the source; their conditions may differ.

Columns and labels:
[1] = tested on: peritoneal endometriosis (ectopic endometrial implants); experiment: Area of ectopic endometrium on peritoneal surfaces at staging laparotomy; format: in vivo, cynomolgus monkeys (Macaca facularis); details: for mean area of peritoneal disease after switch from GnRH analog to RU 486: Group 1, RU 486 for three months after the course of GnRH analog; for area of ectopic endometrium on peritoneal surfaces / size of endometrial implants: post-treatment vs pre-treatment and vs control, FIG. 2, Wilcoxon p<0.05
Experimental: (§1) Using anesthesia (ketamine 20 mg/kg im, xylazine, 1 mg/kg) on day 3 of the menstrual cycle, a diagnostic laparoscopy was performed to rule out pelvic adhesive disease or extant endometriosis. Monkeys with observable pelvic adhesions were excluded. Blood was collected on menstrual days 8-14 via venipuncture (ketamine 10 mg/kg im), and serum assayed for estradiol-17β by RIA. Laparotomy (ketamine 20 mg/kg, xylazine 1 mg/kg) was performed 3-5 days after a clearly defined pre-ovulatory estradiol peak. A 2 cm fundal hysterotomy was performed and approximately 100 mg of endometrium removed by curettage and minced in sterile 0.9% saline. The uterine incision was closed with 4-0 vicryl suture. The minced endometrial tissue was injected sub-peritoneally into five sites, namely, the left and right vesicouterine fold, right and left broad ligaments, and the cul-de-sac.
During the subsequent menstrual cycle, laparotomy was performed 3 to 5 days after the mid-cycle estradiol surge. The presence of ectopic endometrial tissue and the extent of adhesions were noted, with peritoneal implants carefully measured. Photographs of all lesions were taken and assigned a random number for later histological staging of the endometriosis by an independent observer. Biopsies were taken from representative lesions, and the tissue fixed in 10% formalin for histologic examination after hematoxylin and eosin staining.
(§2) Primates were divided equally into four treatment groups (N=8). Group 1 was given monthly injections of the gonadotropin releasing hormone agonist, in an amount of 80 μg/kg im on menstrual day 21 of the second laparotomy cycle. This was continued at 28 day intervals for a total of 3 injections, at which time weekly injections of the antiprogestin RU 486 began, (5 mg/kg im, in oil, initially, then 2 mg/kg/week). RU 486 was continued for a period of 24 weeks.
(§3) Group 2 was given weekly im injections of RU 486 alone (5 mg/kg initially, then 2 mg/kg/week) beginning on menstrual day 1 of the cycle after the endometriosis was confirmed. This was continued for a treatment period of 36 weeks. Group 3 was given doses of the GnRH analog alone for 36 weeks. Group 4 was a control and received vehicle, 0.5 ml of normal saline im, weekly for 36 weeks.
After daily injections began, a staging laparotomy was performed every 12 weeks until the end of therapy to assess the progression or regression of the disease.

[2] = tested on: bone mineral density of the lumbar spine; experiment: Dual X-ray absorptiometry bone mineral density of the lumbar spine; format: in vivo, cynomolgus monkeys (Macaca facularis); details: for change in bone density: after three months of treatment, group level; for bone density in fast bone losers: group 1 animals losing bone on GnRH analog (e.g. monkey 2190, FIG. 3), three months GnRH analog, then three months antiprogestin
Experimental: as §2, §3
Urine was collected at the time of blood sampling. The first sample was taken at the time of the first laparotomy and the second sample was taken at the time of the first injection with subsequent samples drawn every four weeks from the time of the second urine sample. Dual X-ray absorptiometry (DXA, Norland) was used to measure the bone mineral density of the lumbar spine. Primates were anesthetized with ketamine and restrained to minimize motion artifact. DXA was performed before injections began and at three month intervals until completion of the study.

[3] = tested on: endometrial and vaginal epithelium; experiment: Histological assessment of endometrium and vaginal epithelium (hematoxylin and eosin); format: in vivo, cynomolgus monkeys (Macaca facularis); details: for ENDOMETRIUM MENTRUAL PHASE / ENDOMETRIUM THICKNESS / VAGINAL EPITHELIUM AND KERATIN: histology; for ENDOMETRIUM MENTRUAL PHASE / ENDOMETRIUM THICKNESS: hematoxylin and eosin; for VAGINAL EPITHELIUM AND KERATIN: thickness
Experimental: Primates were divided equally into four treatment groups (N=8). Group 1 was given monthly injections of the gonadotropin releasing hormone agonist, in an amount of 80 μg/kg im on menstrual day 21 of the second laparotomy cycle. This was continued at 28 day intervals for a total of 3 injections, at which time weekly injections of the antiprogestin RU 486 began, (5 mg/kg im, in oil, initially, then 2 mg/kg/week). RU 486 was continued for a period of 24 weeks. Group 2 was given weekly im injections of RU 486 alone (5 mg/kg initially, then 2 mg/kg/week) beginning on menstrual day 1 of the cycle after the endometriosis was confirmed. This was continued for a treatment period of 36 weeks. Group 3 was given doses of the GnRH analog alone for 36 weeks. Group 4 was a control and received vehicle, 0.5 ml of normal saline im, weekly for 36 weeks. Vaginal epithelium was obtained at the time of each surgery using Kevorkian biopsy forceps taken from the lateral vaginal side of the upper two-thirds of the vagina. At the time of each laparotomy, a small repeat hysterotomy was performed for the purpose of endometrial sampling for histologic examination.

[4] = tested on: female cynomolgus monkeys; experiment: Ovulation and serum estradiol/progesterone by RIA in monkeys with induced endometriosis; format: in vivo, cynomolgus monkeys (Macaca facularis); details: for mean tonic serum estradiol level: RIA, FIG. 1, control 40.6±43; for suppression of ovulation: treatment alone
Experimental: For the purposes of this study, the gonadotropin releasing hormone agonist selected was leuprolide acetate, the anti-progestin selected was RU 486 and these were administered to female cynomolgus monkeys, which are recognized to be a highly desirable model for human research.
Thirty-six adult female cynomolgus monkeys (Macaca facularis) having regular menstrual cycles were housed in individual cages which had food and water available ad librium.
as §1, §2, §3
Using ketamine anesthesia, blood was collected on alternate days in all groups for 28 days after the initial treatments following confirmation of active endometriosis. The serum was frozen for later analysis. Thereafter, blood was collected weekly. Blood draws continued until spontaneous menses resumed, or two months after the conclusion of injections, whichever came first. Serum was frozen, labelled, and stored for subsequent radioimmunoassay. Estradiol and progesterone were assayed using RIA (ICN Biomedical, Los Angeles, Calif.).

endometriosis = details: cited from earlier work
uterine leiomyomata = details: cited from earlier work

CC#C[C@]1(O)CC[C@H]2[C@@H]3CCC4=CC(=O)CCC4=C3[C@@H](c3ccc(N(C)C)cc3)C[C@@]21C [RU 486, mifepristone]
mean area of peritoneal disease after switch from GnRH analog to RU 486 [1]: remained the unchanged
mean area of peritoneal disease after switch from GnRH analog to RU 486 ([1]; listed as antiprogestin): able to sustain the reduced surface of peritoneal endometriosis
area of ectopic endometrium on peritoneal surfaces / size of endometrial implants [1]: unequivocal limiting impact
bone density, PRE-TREATMENT (MEAN ± SD) ([2]; DXA lumbar spine, baseline before injections): 0.501 ± 0.029
bone density, AFTER 3 MONTHS ([2]; DXA lumbar spine, mean ± SD, in group 1 the first 3 months are GnRH analog): 0.541 ± 0.033
change in bone density [2]: marginally significant increase in bone density
bone density in fast bone losers [2]: counteracted this loss; also recorded: returned to baseline
vaginal atrophy ([3]; cynomolgus monkey, in vivo): not noted
ENDOMETRIUM MENTRUAL PHASE [3]: interval phase
ENDOMETRIUM THICKNESS ([3]; listed as antiprogestin): thinner than in control monkeys; also recorded: remained moderately thin
VAGINAL EPITHELIUM AND KERATIN ([3]; listed as antiprogestin): greater in the antiprogestin group than in the GnRH analog groups; also recorded: thicker
mean tonic serum estradiol level [4]: 57.8 ± 34.6 pg/mL
suppression of ovulation [4]: suppression of ovulation

C#C[C@]1(O)CC[C@H]2[C@@H]3CCC4=Cc5oncc5C[C@]4(C)[C@H]3CC[C@@]21C [danazol, 17-α-pregna-2,4-dien-20-yno[2,3-d]-isoxazol-17-ol]
side effects (endometriosis; in vivo): many androgenic side effects
efficacy in treatment of endometriosis (endometriosis; producing a hypoestrogenic milieu): effective medication for the treatment of endometriosis

CC(=O)O[C@]1(C(C)=O)CC[C@H]2[C@@H]3C[C@H](C)C4=CC(=O)CC[C@]4(C)[C@H]3CC[C@@]21C [medoxyprogesterone acetate]
hot flashes and urinary calcium loss (uterine leiomyomata; add-back regimen with leuprolide): reduced
total uterine volume (uterine leiomyomata; add-back regimen with leuprolide, not back to baseline values): modest increase
effect on agonist-induced decrease of nonmyoma volume (uterine leiomyomata; concomitant treatment with leuprolide): reverse the effectiveness

CCNC(=O)[C@@H]1CCCN1C(=O)[C@H](CCCNC(=N)N)NC(=O)[C@H](CC(C)C)NC(=O)[C@@H](CC(C)C)NC(=O)[C@H](Cc1ccc(O)cc1)NC(=O)[C@H](CO)NC(=O)[C@H](Cc1c[nH]c2ccccc12)NC(=O)[C@H](Cc1c[nH]cn1)NC(=O)[C@@H]1CCC(=O)N1 [GnRH analog, leuprolide acetate]
area of ectopic endometrium on peritoneal surfaces / size of endometrial implants [1]: unequivocal limiting impact
change in bone density [2]: no change
bone density in fast bone losers [2]: significant degree of bone loss
ENDOMETRIUM MENTRUAL PHASE [3]: weakly proliferative
ENDOMETRIUM THICKNESS [3]: uniformly thin
ENDOMETRIUM THICKNESS ([3]; listed as ANALOG ONLY): THIN
VAGINAL EPITHELIUM AND KERATIN [3]: THIN
mean tonic serum estradiol level [4]: 24.2 ± 17 pg/mL
suppression of ovulation [4]: suppression of ovulation
